Test results published in patent US20130005588A1, “METHOD FOR DETERMINING SUBSTANCE NON-TOXICITY” (priority 2010, published 2013).
Where two headings read alike, the source gives them in different places. Residues, ends and D or L forms follow the SMILES beside them.

Assays:
[1] = test system: rat 3-D primary aggregating brain cell cultures; experiment: Gene expression (mRNA of nestin, NF-200, S100β, MBP) by quantitative real-time PCR in aggregating brain cell cultures exposed to potential DNT chemicals; format: cell-based
Description: (§1) Generally one batch of Rat primary aggregating brain cell cultures aggregates were prepared every month. […] The endpoints applied to study processes of neurodevelopment include quantitative real-time PCR, Western blot analysis and mass spectrometry based metabolomics.
Aggregate cultures were maintained for 35 days in vitro (DIV). Samples were taken at DIV 1, 7, 14, 21, 28, 35 and mRNA was isolated, purified and quantified by RT-PCR.
The expression of the following genes was quantified; nestin expressed in neural precurser cells, neurofilament-200 (NF-200) expressed in neurons, S100β expressed in astrocytes and myelin basic protein (MBP) expressed in oligodendrocytes.
Aggregating brain cell cultures were exposed to potential DNT chemicals during both early (day in vitro 7-14) and late developmental stages (day in vitro […]). Chemicals were dissolved in water or DMSO depending on their chemical properties. Control cells received the vehicle without the DNT chemical.

[2] = test system: primary rat aggregating brain cell cultures; format: cell-based
Description: as §1
Cellular extracts (control and treated cultures) were prepared as described. The samples were used to establish an LC-MS method for the analysis of metabolites. […] Significant pertubations in metabolite levels were determined by principal component analysis and metabolites were identified by a Metlin metabolite database search using their retention time and accurate mass. Examples of metabolites that were perturbed by lead chloride and TCE treatment in the neuronal cell model and could be linked to biological pathways are provided in Table 3.

[3] = astrocytic marker, exposure DIV 7-14 or 7-21, real-time PCR
[4] = nestin, NF-200, S100β, MBP, exposure DIV 7-14 or 7-21
[5] = neural precursor marker, exposure DIV 7-14 or 7-21, real-time PCR
[6] = neuronal marker, exposure DIV 7-14 or 7-21, real-time PCR
[7] = oligodendrocyte marker, exposure DIV 7-14 or 7-21, real-time PCR

Row | Compound | The lowest concentration inducing changes in mRNA levels of S100β [1, 3] | significant effects on quantified gene expression levels (one or several cell type related genes) [1, 4] | The lowest concentration inducing changes in mRNA levels of nestin [1, 5] | The lowest concentration inducing changes in mRNA levels of NF-200 [1, 6] | The lowest concentration inducing changes in mRNA levels of MBP [1, 7] | significant effects on quantified gene expression levels (one or several cell type related genes) [1] | The lowest concentration inducing changes in mRNA levels of NF-200 ([1]; rat) | The lowest concentration inducing changes in mRNA levels of S100β ([1]; rat) | The lowest concentration inducing changes in mRNA levels of nestin ([1]; rat) | alteration of metabolites in the aggregate samples ([2]; LC-MS, intra-cellular extracts, treatment 7 to 21 DIV, principal component analysis) | The lowest concentration inducing changes in mRNA levels of S100β ([1]; astrocytic marker, exposure DIV 7-14 or 7-21, real-time PCR, listed as maneb) | alteration of metabolites in the aggregate samples [2] | The lowest concentration inducing changes in mRNA levels of MBP ([1]; rat) [µM]
1 | COC(=O)[C@H](Cc1ccccc1)NC(=O)[C@@H](N)CC(=O)O [Aspartame] (HELM PEPTIDE1{D.F.[CO[*:1]]}$$$$V2.0) | —^1 | did not induce any significant effects | —^1 | —^1 | —^1 | – | – | – | – | – | – | – | –
2 | CC(C)(c1ccc(O)cc1)c1ccc(O)cc1 [Bisphenol A] | —^1 | significantly affected | —^1 | 100 µM | —^1 | – | – | – | – | – | – | – | –
3 | [Cl][Cd][Cl] [Cadmium Chloride] | 1 µM | significantly affected | 1 µM | 1 µM | 10 µM | – | – | – | – | – | – | – | –
4 | CNC(=O)Oc1cccc2ccccc12 [Carbaryl] | —^1 | – | 0.1 µM | 0.1 µM | 0.1 µM | – | – | – | – | – | – | – | –
5 | CCOP(=S)(OCC)Oc1nc(Cl)c(Cl)cc1Cl [Chlorpyrifos] | 10 µM | significantly affected | 0.1 µM | 0.1 µM | 1 µM | – | – | – | – | – | – | – | –
6 | Nc1nnc(-c2cccc(Cl)c2Cl)c(N)n1 [Lamotrigine] | – | – | – | – | – | did not induce any significant effects | —^1 | —^1 | —^1 | – | – | – | –
7 | [Cl][Pb][Cl] [Lead Chloride] | 10 µM | significantly affected | 10 µM | 0.1 µM | 0.1 µM | – | – | – | – | altered hundreds of metabolites | – | – | –
8 | Cl[C@H]1[C@H](Cl)[C@@H](Cl)[C@@H](Cl)[C@H](Cl)[C@H]1Cl [Lindane] | —^1 | significantly affected | 0.1 µM | 0.1 µM | 1 µM | – | – | – | – | – | – | – | –
9 | S=C([S-])NCCNC(=S)[S-].[Mn+2] [Maneb] | —^1 | significantly affected | 1 µM | 0.1 µM | 0.1 µM | – | – | – | – | – | no observed effects | – | –
10 | ClC=C(Cl)Cl [Trichloroethylene] | – | – | – | – | – | significantly affected | 0.1 µM | —^1 | 50 µM | – | – | altered hundreds of metabolites | –
11 | CCCC(CCC)C(=O)O [Valproic acid] | – | – | – | – | – | significantly affected | —^1 | 500 µM | —^1 | – | – | – | 100
